Values joined by “and” are separate entries in the source; they are usually repeats but may differ in a detail not shown here. Identical values can stand only once.
Columns and labels:
[1] = Solubility studies in water at 2 hours; format: physicochemical
[2] = Pharmacokinetic study: plasma concentration and plasma PK parameters after IV/PO dosing (LC-MS/MS, WinNonlin); format: in vivo, Male SD Rat; conditions: male SD rat, vehicle 20% HP-β-CD in water (POA, freebase) or water (salts)
From the text: Pharmacokinetic and Brain Penetration Study
Dose formulation processing during dosing: The dose formulations will be kept at room temperature.
Concentrations of Test Article in the plasma samples will be analyzed using a LC-MS/MS method.
WinNonlin (Phoenix™, version 6.1) or other similar software will be used for pharmacokinetic calculations. The following pharmacokinetic parameters will be calculated, whenever possible from the plasma concentration versus time data:
IV administration: T1/2, C0, AUClast, AUCinf, MRTinf, Cl, Vss, Number of Points for Regression.
PO administration: T1/2, Cmax, Tmax, MRTinf, AUCinf, AUClast, F %, Number of Points for Regression.
The pharmacokinetic data will be described using descriptive statistics such as mean, standard deviation.

[3] = Dynamic vapor sorption (DVS), hygroscopicity at 25° C.; format: physicochemical
Description: Dynamic Vapor Sorption (DVS)
DVS was determined using DVS Intrinsic (SMS, UK). Transfer about 20 to 50 mg of the compound into a SMS dynamic vapor sorption model DVS and record the weight change with respect to a varying atmospheric humidity at 25° C.

[4] = PO 10 mg/kg (equal to freebase), plasma, individual rats, 10 mg/kg
[5] = PO 10 mg/kg (equal to freebase), plasma, mean n=3

COc1cc2c(cc1OC)[C@@H]1Cc3ccc(O)c(OC)c3CN1CC2.O=C(O)/C=C\C(=O)O [TLZ-16 maleate]
solubility in water [1]: approximately 11.0 mg/mL
F ([2]; PO 10 mg/kg (equal to freebase) vs IV 3 mg/kg freebase, individual rats): 21.7% and 33.4% and 21.3%
F, Mean ([2]; PO 10 mg/kg (equal to freebase) vs IV 3 mg/kg freebase, mean n=3): 25.5%
concentration in plasma ([2]; PO 10 mg/kg (equal to freebase), 0 h, individual rats): BLOQ (BLOQ = below limit of quantitation (0.2 ng/mL))
concentration in plasma ([2]; PO 10 mg/kg (equal to freebase), 0.25 h, individual rats, 10 mg/kg): 138 ng/mL and 257 ng/mL and 438 ng/mL
concentration in plasma, Mean ([2]; PO 10 mg/kg (equal to freebase), 0.25 h, mean n=3): 278 ng/mL
concentration in plasma ([2]; PO 10 mg/kg (equal to freebase), 0.5 h, individual rats, 10 mg/kg): 132 ng/mL and 290 ng/mL and 287 ng/mL
concentration in plasma, Mean ([2]; PO 10 mg/kg (equal to freebase), 0.5 h, mean n=3): 236 ng/mL
concentration in plasma ([2]; PO 10 mg/kg (equal to freebase), 1 h, individual rats, 10 mg/kg): 118 ng/mL and 206 ng/mL and 176 ng/mL
concentration in plasma, Mean ([2]; PO 10 mg/kg (equal to freebase), 1 h, mean n=3): 167 ng/mL
concentration in plasma ([2]; PO 10 mg/kg (equal to freebase), 2 h, individual rats, 10 mg/kg): 106 ng/mL and 175 ng/mL and 55.8 ng/mL
concentration in plasma, Mean ([2]; PO 10 mg/kg (equal to freebase), 2 h, mean n=3): 112 ng/mL
concentration in plasma ([2]; PO 10 mg/kg (equal to freebase), 4 h, individual rats, 10 mg/kg): 104 ng/mL and 116 ng/mL and 69.3 ng/mL
concentration in plasma, Mean ([2]; PO 10 mg/kg (equal to freebase), 4 h, mean n=3): 96.4 ng/mL
concentration in plasma ([2]; PO 10 mg/kg (equal to freebase), 8 h, individual rats, 10 mg/kg): 40.8 ng/mL and 34.5 ng/mL and 34.1 ng/mL
concentration in plasma, Mean ([2]; PO 10 mg/kg (equal to freebase), 8 h, mean n=3): 36.5 ng/mL
concentration in plasma ([2]; PO 10 mg/kg (equal to freebase), 24 h, individual rats): BLOQ (BLOQ = below limit of quantitation (0.2 ng/mL))
AUCInf [2, 4]: 965 ng·h/mL and 1132 ng·h/mL and 898 ng·h/mL
AUClast [2, 4]: 725 ng·h/mL and 1007 ng·h/mL and 709 ng·h/mL
AUClast/D [2, 4]: 72.5 kg·ng·h/mL/mg and 101 kg·ng·h/mL/mg and 70.9 kg·ng·h/mL/mg
AUC—% Extrap_obs [2, 4]: 24.9% and 11.1% and 21.0%
Cmax [2, 4]: 138 ng/mL and 290 ng/mL and 438 ng/mL
MRTInf_obs [2, 4]: 5.88 h and 3.67 h and 4.80 h
T1/2 [2, 4]: 4.08 h and 2.52 h and 3.83 h
Tmax [2, 4]: 0.25 h (2×) and 0.5 h
AUCInf, Mean [2, 5]: 998 ng·h/mL
AUClast, Mean [2, 5]: 814 ng·h/mL
AUClast/D, Mean [2, 5]: 81 kg·ng·h/mL/mg
AUC—% Extrap_obs, Mean [2, 5]: 19.0%
Cmax, Mean [2, 5]: 289 ng/mL
MRTInf_obs, Mean [2, 5]: 4.78 h
T1/2, Mean [2, 5]: 3.48 h
Tmax, Mean [2, 5]: 0.333 h
hygroscopicity (DVS) ([3]; DVS, 25° C.): slightly hygroscopic
solid form after DVS test ([3]; after DVS test): does not change
water absorbed in DVS ([3]; at 80% RH, 25° C.): about 0.085 wt %
